Measured values as given in publication PMC8138313, “Identification, Selection and Immune Assessment of Liver Stage CD8 T Cell Epitopes From Plasmodium falciparum” (Frontiers in Immunology, 2021).
pIC50: −log10 of the molar value. Where a SMILES comes first, the peptide text is derived from it.

What was measured:
HLA A*0301 = HLA A*0301 (Homo sapiens, UniProt P04439); assay: HLA class I binding assay (cell-free competition, fluorescence polarization)
HLA A*0201 = HLA A*0201 (Homo sapiens, UniProt P04439, D140Y/D185E/D98H/E176V/E277Q/G131W/G231S/I119V/I121R/I166T/I218V/L300P/L318F/N151K/N90K/P208A/P217A/Q86G/Q94H/R138H/R169H/T345S); assay: as above

| SMILES | pIC50 (HLA A*0301) | pIC50 (HLA A*0201) |
| --- | --- | --- |
| CC(C)C[C@H](NC(=O)[C@H](C)N)C(=O)N[C@@H](CC(N)=O)C(=O)N[C@@H](CC(C)C)C(=O)N[C@@H](Cc1ccccc1)C(=O)N[C@@H](Cc1ccccc1)C(=O)N[C@@H](CCC(N)=O)C(=O)N[C@@H](CC(N)=O)C(=O)N[C@@H](CCCCN)C(=O)O (H-ALNLFFQNK-OH) | 5.94 |  |
| CC(C)C[C@H](NC(=O)[C@H](Cc1ccccc1)NC(=O)[C@H](CO)NC(=O)[C@H](Cc1ccccc1)NC(=O)[C@H](CS)NC(=O)[C@@H](N)Cc1ccccc1)C(=O)N[C@@H](CCCCN)C(=O)N[C@@H](CO)C(=O)N[C@@H](CO)C(=O)N[C@@H](CCCCN)C(=O)O (H-FCFSFLKSSK-OH) | 5.04 |  |
| CC(C)C[C@H](NC(=O)[C@H](CC(C)C)NC(=O)[C@H](CC(N)=O)NC(=O)[C@H](CC(C)C)NC(=O)[C@H](CC(C)C)NC(=O)[C@@H](N)Cc1ccccc1)C(=O)N[C@@H](CC(N)=O)C(=O)N[C@@H](CCC(=O)O)C(=O)N[C@@H](Cc1c[nH]cn1)C(=O)N[C@H](C(=O)O)C(C)C (H-FLLNLLNEHV-OH) |  | 5.77 |
| CC[C@H](C)[C@H](NC(=O)CN)C(=O)N[C@@H](C)C(=O)N[C@@H](CC(N)=O)C(=O)N[C@@H](CC(=O)O)C(=O)N[C@@H](CC(C)C)C(=O)N[C@@H](CO)C(=O)N[C@H](C(=O)N[C@@H](CC(C)C)C(=O)O)[C@@H](C)O (H-GIANDLSTL-OH) |  | 5.24 |
| CSCC[C@H](NC(=O)[C@@H](NC(=O)[C@H](CC(=O)O)NC(=O)[C@H](Cc1c[nH]cn1)NC(=O)[C@@H]1CCCN1C(=O)[C@H](CO)NC(=O)[C@H](CC(C)C)NC(=O)CN)[C@@H](C)O)C(=O)N[C@@H](CCC(N)=O)C(=O)N[C@@H](CCCCN)C(=O)O (H-GLSPHDTMQK-OH) | 5.96 |  |
| CC[C@H](C)[C@H](N)C(=O)N[C@@H](CC(C)C)C(=O)N[C@H](C(=O)N[C@@H](CO)C(=O)N[C@@H](CCCNC(=N)N)C(=O)N[C@@H](CC(C)C)C(=O)N[C@H](C(=O)N[C@@H](CC(C)C)C(=O)N[C@@H](CCCCN)C(=O)O)[C@@H](C)O)[C@@H](C)CC (H-ILISRLTLK-OH) | 6.66 |  |
| CC[C@H](C)[C@H](N)C(=O)N[C@@H](CC(C)C)C(=O)N[C@@H](Cc1ccc(O)cc1)C(=O)N[C@@H](CCCCN)C(=O)N[C@@H](CC(N)=O)C(=O)N[C@H](C(=O)N[C@@H](CC(=O)O)C(=O)N[C@@H](CS)C(=O)N[C@H](C(=O)O)C(C)C)[C@@H](C)CC (H-ILYKNIDCV-OH) |  | 5.85 |
| CC[C@H](C)[C@H](NC(=O)[C@H](Cc1ccccc1)NC(=O)[C@H](CO)NC(=O)[C@H](CO)NC(=O)[C@@H](NC(=O)[C@@H](N)CCCCN)[C@@H](C)CC)C(=O)N[C@@H](CC(N)=O)C(=O)N[C@@H](CCC(N)=O)C(=O)N[C@@H](CCCNC(=N)N)C(=O)N[C@@H](CCCCN)C(=O)O (H-KISSFINQRK-OH) | 6.50 |  |
| CC(C)C[C@H](NC(=O)[C@H](CC(=O)O)NC(=O)[C@H](CC(C)C)NC(=O)[C@H](CO)NC(=O)[C@@H]1CCCN1C(=O)[C@H](CCCCN)NC(=O)[C@H](CC(N)=O)NC(=O)[C@H](CC(C)C)NC(=O)[C@H](CC(C)C)NC(=O)[C@@H](N)CCCCN)C(=O)O (H-KLLNKPSLDL-OH) | 5.63 | 5.37 |
| CSCC[C@H](NC(=O)[C@H](CC(N)=O)NC(=O)[C@H](Cc1ccc(O)cc1)NC(=O)[C@H](CC(N)=O)NC(=O)[C@H](CC(=O)O)NC(=O)[C@H](Cc1ccc(O)cc1)NC(=O)[C@H](CC(N)=O)NC(=O)[C@@H](N)CCCCN)C(=O)N[C@@H](CCCCN)C(=O)O (H-KNYDNYNMK-OH) | 5.60 |  |
| CC[C@H](C)[C@H](NC(=O)[C@H](CC(=O)O)NC(=O)[C@@H](NC(=O)[C@H](CO)NC(=O)[C@@H](NC(=O)[C@@H](N)CC(C)C)[C@@H](C)CC)[C@@H](C)O)C(=O)N[C@H](C(=O)N[C@@H](Cc1ccccc1)C(=O)N[C@@H](CC(C)C)C(=O)O)[C@@H](C)CC (H-LISTDIIFL-OH) |  | 6.21 |
| CC(C)C[C@H](NC(=O)[C@H](CC(N)=O)NC(=O)[C@H](C)NC(=O)[C@H](C)NC(=O)[C@H](CCCCN)NC(=O)[C@H](CCC(N)=O)NC(=O)[C@H](Cc1ccccc1)NC(=O)[C@H](CC(C)C)NC(=O)[C@@H](N)CC(C)C)C(=O)O (H-LLFQKAANL-OH) |  | 5.73 |
| CC[C@H](C)[C@H](NC(=O)[C@H](CCSC)NC(=O)[C@H](CCCCN)NC(=O)[C@H](CCSC)NC(=O)[C@@H](NC(=O)[C@@H](N)CC(C)C)[C@@H](C)O)C(=O)N[C@@H](CC(N)=O)C(=O)N[C@@H](CC(N)=O)C(=O)N[C@@H](CCCCN)C(=O)O (H-LTMKMINNK-OH) | 6.33 |  |
| CSCC[C@H](N)C(=O)N[C@@H](CC(=O)O)C(=O)N[C@@H](Cc1ccccc1)C(=O)N1CCC[C@H]1C(=O)N[C@@H](CCCCN)C(=O)N[C@@H](CC(C)C)C(=O)N[C@@H](CC(C)C)C(=O)N[C@@H](CC(N)=O)C(=O)N[C@@H](CCCCN)C(=O)O (H-MDFPKLLNK-OH) | 5.68 |  |
| CC(C)C[C@H](NC(=O)[C@@H](N)CC(N)=O)C(=O)N[C@@H](Cc1ccccc1)C(=O)N[C@@H](CCC(=O)O)C(=O)N[C@@H](Cc1c[nH]c2ccccc12)C(=O)N[C@@H](CO)C(=O)N[C@@H](CCCCN)C(=O)N[C@H](C(=O)N[C@H](C(=O)O)C(C)C)[C@@H](C)O (H-NLFEWSKTV-OH) |  | 5.79 |
| CC[C@H](C)[C@H](NC(=O)[C@H](CO)NC(=O)[C@H](CCCCN)NC(=O)[C@H](CC(N)=O)NC(=O)[C@H](CCC(N)=O)NC(=O)[C@H](Cc1ccccc1)NC(=O)[C@H](Cc1ccccc1)NC(=O)[C@H](CC(C)C)NC(=O)[C@@H](N)CC(N)=O)C(=O)O (H-NLFFQNKSI-OH; N-terminus assumed) |  | < 3.00 |
| CC(C)C[C@H](NC(=O)[C@H](CC(N)=O)NC(=O)[C@H](CC(C)C)NC(=O)[C@@H](N)CC(N)=O)C(=O)N[C@@H](CS)C(=O)NCC(=O)N[C@@H](CCCCN)C(=O)N[C@@H](Cc1ccc(O)cc1)C(=O)N[C@H](C(=O)N[C@@H](CCCCN)C(=O)O)[C@@H](C)O (H-NLNLCGKYTK-OH; N-terminus assumed) | < 3.00 |  |
| CC[C@H](C)[C@H](NC(=O)[C@H](CC(N)=O)NC(=O)[C@H](CCC(N)=O)NC(=O)[C@H](CCC(N)=O)NC(=O)[C@H](Cc1ccc(O)cc1)NC(=O)[C@H](CCSC)NC(=O)[C@@H](N)CC(N)=O)C(=O)N1CCC[C@H]1C(=O)N[C@@H](CC(C)C)C(=O)O (H-NMYQQNIPL-OH) |  | 3.48 |
| CC[C@H](C)[C@H](NC(=O)[C@@H]1CCCN1C(=O)[C@H](Cc1ccc(O)cc1)NC(=O)[C@H](CC(=O)O)NC(=O)[C@H](Cc1ccccc1)NC(=O)[C@@H](NC(=O)[C@@H](N)CCC(N)=O)C(C)C)C(=O)N[C@@H](CCC(=O)O)C(=O)N[C@@H](CCCCN)C(=O)O (H-QVFDYPIEK-OH) | 5.80 |  |
| CC[C@H](C)[C@H](NC(=O)[C@@H](N)CCCNC(=N)N)C(=O)N[C@@H](CO)C(=O)NCC(=O)N[C@@H](Cc1c[nH]c2ccccc12)C(=O)N[C@@H](CCCCN)C(=O)NCC(=O)N[C@@H](CC(=O)O)C(=O)N[C@@H](CC(N)=O)C(=O)N[C@@H](CCCCN)C(=O)O (H-RISGWKGDNK-OH) | 6.26 |  |
| CC[C@H](C)[C@H](NC(=O)[C@H](CO)NC(=O)[C@H](CCCNC(=N)N)NC(=O)[C@H](CC(N)=O)NC(=O)[C@H](CC(N)=O)NC(=O)[C@H](CC(C)C)NC(=O)[C@@H](N)CCCNC(=N)N)C(=O)N[C@@H](Cc1ccc(O)cc1)C(=O)N[C@@H](CCCCN)C(=O)O (H-RLNNRSIYK-OH) | 6.65 |  |
| CC(C)C[C@H](NC(=O)[C@H](Cc1ccccc1)NC(=O)[C@@H](NC(=O)[C@H](CCCCN)NC(=O)[C@H](CCCCN)NC(=O)[C@H](CO)NC(=O)[C@@H](N)CCCNC(=N)N)[C@@H](C)O)C(=O)N[C@H](C(=O)N[C@@H](CCCCN)C(=O)O)C(C)C (H-RSKKTFLVK-OH) | 6.39 |  |
| CC[C@H](C)[C@H](NC(=O)[C@H](CO)NC(=O)[C@H](Cc1ccccc1)NC(=O)[C@@H](NC(=O)[C@H](CO)NC(=O)CNC(=O)[C@H](CO)NC(=O)[C@H](CO)NC(=O)[C@@H](N)CCCNC(=N)N)[C@@H](C)O)C(=O)N[C@@H](CCCCN)C(=O)O (H-RSSGSTFSIK-OH) | 6.49 |  |
| CC[C@H](C)[C@H](NC(=O)[C@@H](N)CO)C(=O)N[C@@H](CO)C(=O)N[C@@H](CC(=O)O)C(=O)N[C@@H](Cc1ccc(O)cc1)C(=O)N[C@H](C(=O)N[C@@H](CCCCN)C(=O)N[C@@H](CO)C(=O)N[C@@H](CC(C)C)C(=O)O)[C@@H](C)O (H-SISDYTKSL-OH) |  | 3.45 |
| CC[C@H](C)[C@H](NC(=O)[C@H](CC(N)=O)NC(=O)[C@@H](NC(=O)[C@H](CCSC)NC(=O)[C@@H](N)CO)[C@@H](C)O)C(=O)N1CCC[C@H]1C(=O)N[C@@H](CCSC)C(=O)N[C@@H](CC(N)=O)C(=O)N[C@H](C(=O)O)C(C)C (H-SMTNIPMNV-OH) |  | 6.61 |
| CSCC[C@H](NC(=O)[C@H](CC(N)=O)NC(=O)[C@H](CCC(N)=O)NC(=O)[C@H](CC(N)=O)NC(=O)[C@H](C)NC(=O)[C@H](CCSC)NC(=O)[C@@H](N)[C@@H](C)O)C(=O)N[C@@H](CC(N)=O)C(=O)N[C@@H](Cc1ccc(O)cc1)C(=O)N[C@@H](CCCCN)C(=O)O (H-TMANQNMNYK-OH) | 6.68 |  |
| CC[C@H](C)[C@H](NC(=O)CNC(=O)[C@H](Cc1ccc(O)cc1)NC(=O)[C@H](Cc1c[nH]cn1)NC(=O)[C@@H](NC(=O)[C@@H](N)C(C)C)[C@@H](C)CC)C(=O)N[C@@H](CC(N)=O)C(=O)N1CCC[C@H]1C(=O)N[C@H](C(=O)O)C(C)C (H-VIHYGINPV-OH) |  | 5.77 |
| CC[C@H](C)[C@H](NC(=O)[C@H](CC(=O)O)NC(=O)[C@H](CC(N)=O)NC(=O)[C@H](CC(N)=O)NC(=O)[C@H](CC(C)C)NC(=O)[C@@H](N)Cc1c[nH]c2ccccc12)C(=O)N[C@@H](Cc1ccc(O)cc1)C(=O)N[C@@H](CC(N)=O)C(=O)N[C@H](C(=O)O)C(C)C (H-WLNNDIYNV-OH) |  | 6.80 |
| CC[C@H](C)[C@H](NC(=O)[C@@H](NC(=O)[C@@H](NC(=O)[C@H](CCCCN)NC(=O)[C@H](CC(N)=O)NC(=O)[C@H](CCCCN)NC(=O)[C@H](CC(N)=O)NC(=O)[C@@H](NC(=O)[C@@H](NC(=O)[C@@H](N)Cc1ccc(O)cc1)[C@@H](C)CC)[C@@H](C)O)C(C)C)[C@@H](C)O)C(=O)O (H-YITNKNKVTI-OH; N-terminus assumed) |  | < 3.00 |
